Assay results published in publication PMC10008561 (Nature Communications, 2023).
Several values for one entry are separate records, joined by “and”; a condition that tells them apart may be missing. Equal entries are not always repeated. Where two headings read alike, the source gives them in different places.

Key:
human KOR (Gi3) [1] = molecular target: T1, human KOR (Gi3) (Homo sapiens, UniProt P41145, F283A); experiment: cell-based; conditions: HEK-293T
T1 construct: expressed in transfected cells; host or cells: HEK293T
T1 sequence (P41145 whole entry F283A): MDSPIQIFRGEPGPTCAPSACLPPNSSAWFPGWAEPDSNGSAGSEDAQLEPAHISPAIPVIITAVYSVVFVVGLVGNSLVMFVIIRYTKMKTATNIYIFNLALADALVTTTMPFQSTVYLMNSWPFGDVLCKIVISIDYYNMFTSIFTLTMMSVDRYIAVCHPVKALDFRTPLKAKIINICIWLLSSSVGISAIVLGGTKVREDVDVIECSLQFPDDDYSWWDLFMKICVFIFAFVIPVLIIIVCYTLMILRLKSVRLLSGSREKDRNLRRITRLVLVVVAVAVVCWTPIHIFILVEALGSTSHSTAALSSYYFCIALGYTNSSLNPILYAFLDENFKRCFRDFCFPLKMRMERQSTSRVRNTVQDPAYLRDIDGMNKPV

human KOR (Gi3) [2] = molecular target: T2, human KOR (Gi3) (Homo sapiens, UniProt P41145, N326A); experiment: cell-based; conditions: HEK-293T
T2 construct: expressed in transfected cells; host or cells: HEK293T
T2 sequence (P41145 whole entry N326A): as the sequence (P41145 whole entry F283A) above, with A283F, N326A counted along it

human KOR (Gi3) [3] = molecular target: T3, human KOR (Gi3) (Homo sapiens, UniProt P41145, G319L); experiment: cell-based; conditions: HEK-293T
T3 construct: expressed in transfected cells; host or cells: HEK293T
T3 sequence (P41145 whole entry G319L): as the sequence (P41145 whole entry F283A) above, with A283F, G319L counted along it

human KOR (Gi3) [4] = molecular target: T4, human KOR (Gi3) (Homo sapiens, UniProt P41145, R274A); experiment: cell-based; conditions: HEK-293T
T4 construct: expressed in transfected cells; host or cells: HEK293T
T4 sequence (P41145 whole entry R274A): as the sequence (P41145 whole entry F283A) above, with R274A, A283F counted along it

human KOR (Gi3) [5] = molecular target: T5, human KOR (Gi3) (Homo sapiens, UniProt P41145, Y139L); experiment: cell-based; conditions: HEK-293T
T5 construct: expressed in transfected cells; host or cells: HEK293T
T5 sequence (P41145 whole entry Y139L): as the sequence (P41145 whole entry F283A) above, with Y139L, A283F counted along it

human KOR (Gi3) [6] = molecular target: T6, human KOR (Gi3) (Homo sapiens, UniProt P41145, L253A); experiment: cell-based; conditions: HEK-293T
T6 construct: expressed in transfected cells; host or cells: HEK293T
T6 sequence (P41145 whole entry L253A): as the sequence (P41145 whole entry F283A) above, with L253A, A283F counted along it

human KOR (Gi3) [7] = molecular target: T7, human KOR (Gi3) (Homo sapiens, UniProt P41145, Y320L); experiment: cell-based; conditions: HEK-293T
T7 construct: expressed in transfected cells; host or cells: HEK293T
T7 sequence (P41145 whole entry Y320L): as the sequence (P41145 whole entry F283A) above, with A283F, Y320L counted along it

[8] = ref Liu et al., Neuropsychopharmacology, 2018, Abraham et al., cited from earlier work
KOR K227A = KOR K227A (Homo sapiens, UniProt P41145, K227A); assay type: cell-based; design: TEV cleavage site (C); tTA transcription factor (C); expressed in transfected cells; host or cells: HTLA cells; conditions: Log [Drug]
Sequence of KOR K227A (P41145 whole entry K227A): as the sequence (P41145 whole entry F283A) above, with K227A, A283F counted along it
Sequence of KOR K227A (P32121 whole entry partner): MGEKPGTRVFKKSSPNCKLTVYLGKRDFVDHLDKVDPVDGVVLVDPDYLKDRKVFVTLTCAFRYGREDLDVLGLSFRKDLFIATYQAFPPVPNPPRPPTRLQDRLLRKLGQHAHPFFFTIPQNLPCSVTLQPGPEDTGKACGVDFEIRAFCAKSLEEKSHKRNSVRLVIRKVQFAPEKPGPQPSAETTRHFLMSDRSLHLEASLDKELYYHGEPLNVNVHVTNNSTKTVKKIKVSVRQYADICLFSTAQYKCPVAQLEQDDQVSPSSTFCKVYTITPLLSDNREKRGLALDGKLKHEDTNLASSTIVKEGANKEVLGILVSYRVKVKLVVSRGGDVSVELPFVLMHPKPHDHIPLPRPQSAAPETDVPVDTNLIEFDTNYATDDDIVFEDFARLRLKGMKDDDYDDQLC

human KOR (GoB) [9] = molecular target: T8, human KOR (GoB) (Homo sapiens, UniProt P41145, K227A); experiment: cell-based; conditions: HEK-293T
T8 construct: expressed in transfected cells; host or cells: HEK293T
T8 sequence (P41145 whole entry K227A): as the sequence (P41145 whole entry F283A) above, with K227A, A283F counted along it

human KOR (GoB) [10] = molecular target: T9, human KOR (GoB) (Homo sapiens, UniProt P41145, F283A); experiment: cell-based; conditions: HEK-293T
T9 construct: expressed in transfected cells; host or cells: HEK293T
T9 sequence (P41145 whole entry F283A): as the sequence (P41145 whole entry F283A) above

human KOR (GoB) [11] = molecular target: T10, human KOR (GoB) (Homo sapiens, UniProt P41145, D155A); experiment: cell-based; conditions: HEK-293T
T10 construct: expressed in transfected cells; host or cells: HEK293T
T10 sequence (P41145 whole entry D155A): as the sequence (P41145 whole entry F283A) above, with D155A, A283F counted along it

human KOR (GoB) [12] = molecular target: T11, human KOR (GoB) (Homo sapiens, UniProt P41145, T94V); experiment: cell-based; conditions: HEK-293T
T11 construct: expressed in transfected cells; host or cells: HEK293T
T11 sequence (P41145 whole entry T94V): as the sequence (P41145 whole entry F283A) above, with T94V, A283F counted along it

human KOR (GoB) [13] = molecular target: T12, human KOR (GoB) (Homo sapiens, UniProt P41145, E297A); experiment: cell-based; conditions: HEK-293T
T12 construct: expressed in transfected cells; host or cells: HEK293T
T12 sequence (P41145 whole entry E297A): as the sequence (P41145 whole entry F283A) above, with A283F, E297A counted along it

human KOR (GoB) [14] = molecular target: T13, human KOR (GoB) (Homo sapiens, UniProt P41145, Y320L); experiment: cell-based; conditions: HEK-293T
T13 construct: expressed in transfected cells; host or cells: HEK293T
T13 sequence (P41145 whole entry Y320L): as the sequence (P41145 whole entry F283A) above, with A283F, Y320L counted along it

human KOR (GoB) [15] = molecular target: T14, human KOR (GoB) (Homo sapiens, UniProt P41145, D105A); experiment: cell-based; conditions: HEK-293T
T14 construct: expressed in transfected cells; host or cells: HEK293T
T14 sequence (P41145 whole entry D105A): as the sequence (P41145 whole entry F283A) above, with D105A, A283F counted along it

human KOR (GoB) [16] = molecular target: T15, human KOR (GoB) (Homo sapiens, UniProt P41145, Q115N); experiment: cell-based; conditions: HEK-293T
T15 construct: expressed in transfected cells; host or cells: HEK293T
T15 sequence (P41145 whole entry Q115N): as the sequence (P41145 whole entry F283A) above, with Q115N, A283F counted along it

human KOR (GoB) [17] = molecular target: T16, human KOR (GoB) (Homo sapiens, UniProt P41145, K200A); experiment: cell-based; conditions: HEK-293T
T16 construct: expressed in transfected cells; host or cells: HEK293T
T16 sequence (P41145 whole entry K200A): as the sequence (P41145 whole entry F283A) above, with K200A, A283F counted along it

human KOR (GoB) [18] = molecular target: T17, human KOR (GoB) (Homo sapiens, UniProt P41145, D334A); experiment: cell-based; conditions: HEK-293T
T17 construct: expressed in transfected cells; host or cells: HEK293T
T17 sequence (P41145 whole entry D334A): as the sequence (P41145 whole entry F283A) above, with A283F, D334A counted along it

human KOR [19] = molecular target: T18, human KOR (Homo sapiens, UniProt P41145); experiment: cell-based; design: expressed in transfected cells; host or cells: HEK 293T (ATCC, CRL-3216); conditions: HTLA
T18 sequence (P41145 whole entry): as the sequence (P41145 whole entry F283A) above, with A283F counted along it

human KOR [20] = molecular target: T18, human KOR; experiment: cell-based; design: expressed in transfected cells; host or cells: HEK 293T (ATCC, CRL-3216); conditions: HEK-293T
KOR = experiment: Bias factor, Gz vs β-arrestin2 (BRET), U50,488 as reference; assay type: cell-based, human
[21] = read-out: KOR WT_Arrestin response (Figure S4D)
[22] = read-out: Tango response (Figure S4C)
[23] = read-out: KOR WT_Gi response (Figure S4D)
[24] = read-out: cAMP response (Figure S4C)

`CN(C(=O)/C=C/c1ccoc1)[C@@H]1CC[C@@]2(O)[C@H]3Cc4ccc(O)c5c4[C@@]2(CCN3CC2CC2)[C@H]1O5` [Nalfurafine, nalfurafine] showed an Emax (human KOR (Gi3) [1]) of 74.8%, an Emax (human KOR (Gi3) [2]) of 106% and an Emax (human KOR (Gi3) [3]) of 106%. For the same compound, the Emax (human KOR (Gi3) [4]) was 98.8%, the Emax (human KOR (Gi3) [5]) was 96% and the Emax (human KOR (Gi3) [6]) was 104%. For the same compound, the Emax (human KOR (Gi3) [7]) was 66.9%, the side effects ([8]; high dose 20-50 μg/Kg) was “starts causing motor incoordination, sedation, and aversion effects” and the “side effects (dysphoria, sedation, hallucinations)” value ([8]; low dose 2.5-20 μg/Kg) was “does not produce typical”. The “KOR K227A_Arrestin response (Figure S4D)” value (KOR K227A; M -6, replicate values) was 101.315 and 102.717, the “KOR K227A_Arrestin response (Figure S4D)” value (KOR K227A; M -6.5, replicate values) was 105.822 and 93.8848 and 97.1199 and the “KOR K227A_Arrestin response (Figure S4D)” value (KOR K227A; M -7, replicate values) was 91.3062 and 96.8492 and 89.7833. For the same compound, the “KOR K227A_Arrestin response (Figure S4D)” value (KOR K227A; M -7.5, replicate values) was 70.8658 and 86.1016, the “KOR K227A_Arrestin response (Figure S4D)” value (KOR K227A; M -8, replicate values) was 84.9439 and 77.9998 and the “KOR K227A_Arrestin response (Figure S4D)” value (KOR K227A; M -8.5, replicate values) was 65.7403 and 77.6179 and 69.9994. The “KOR K227A_Arrestin response (Figure S4D)” value (KOR K227A; M -9, replicate values) was 59.6373 and 67.8004 and 59.0282, the “KOR K227A_Arrestin response (Figure S4D)” value (KOR K227A; M -9.5, replicate values) was 49.3052 and 47.5598 and 61.4935 and the “KOR K227A_Arrestin response (Figure S4D)” value (KOR K227A; M -10, replicate values) was 39.6619 and 44.8012 and 31.3899. The “KOR K227A_Arrestin response (Figure S4D)” value (KOR K227A; M -10.5, replicate values) was 20.4503 and 25.5006 and 21.705, the “KOR K227A_Arrestin response (Figure S4D)” value (KOR K227A; M -11, replicate values) was 23.8027 and 10.0134 and 11.9765 and the “KOR K227A_Arrestin response (Figure S4D)” value (KOR K227A; M -12, replicate values) was 12.7008 and 13.5043. The “KOR K227A_Arrestin response (Figure S4D)” value (KOR K227A; M -12.5, replicate values) was 6.071 and 3.454 and 8.161, the “KOR K227A_Arrestin response (Figure S4D)” value (KOR K227A; M -13, replicate values) was 5.581 and 8.377 and 4.789 and the “KOR K227A_Arrestin response (Figure S4D)” value (KOR K227A; M -14, replicate values) was 0.5358 and 5.464 and 0.3918. The Emax (human KOR (GoB) [9]) was 94.3%, the Emax (human KOR (GoB) [10]) was 91% and the Emax (human KOR (GoB) [11]) was 99%. For the same compound, the Emax (human KOR (GoB) [12]) was 100%, the Emax (human KOR (GoB) [13]) was 103% and the Emax (human KOR (GoB) [14]) was 76%. It also gave an Emax (human KOR (GoB) [15]) of 91%, an Emax (human KOR (GoB) [16]) of 80.5% and an Emax (human KOR (GoB) [17]) of 98.3%. For the same compound, the Emax (human KOR (GoB) [18]) was 91.1%, the Emax (human KOR [19]) was 100 ± 5% and the activation at 3.162 pM (human KOR [19]; [21]) was 21.6%. It also gave an activation at 10 pM (human KOR [19]; [21]) of 33.5%, an activation at 31.62 pM (human KOR [19]; [21]) of 37.7% and an activation at 0.0001 µM (human KOR [19]; [21]) of 65.6%. The activation at 0.001 µM (human KOR [19]; [21]) was 67.9%, the activation at 0.01 µM (human KOR [19]; [21]) was 76.6% and the activation at 0.1 µM (human KOR [19]; [21]) was 97.1%. The activation at 1 µM (human KOR [19]; [21]) was 106%, the activation at […] (human KOR [19]; [21]) was 68.4% and 74.4% and 96.9% and 96.5% and the activation at 10 pM (human KOR [19]; read-out: Tango response) was 21.8%. It also gave an activation at 31.62 pM (human KOR [19]; read-out: Tango response) of 35.1%, an activation at 0.0001 µM (human KOR [19]; read-out: Tango response) of 39.8% and an activation at 0.001 µM (human KOR [19]; read-out: Tango response) of 74.2%. The activation at 0.01 µM (human KOR [19]; read-out: Tango response) was 80.9%, the activation at 1 µM (human KOR [19]; read-out: Tango response) was 106% and the activation at […] (human KOR [19]; read-out: Tango response) was 71% and 100%. For the same compound, the activation at 0.0001 µM (human KOR [19]; [22]) was 36.1%, the activation at 0.001 µM (human KOR [19]; [22]) was 74.1% and the activation at 0.1 µM (human KOR [19]; [22]) was 87.2%. For the same compound, the activation at 1 µM (human KOR [19]; [22]) was 87.7%, the activation at 10 µM (human KOR [19]; [22]) was 121% and the activation at […] (human KOR [19]; [22]) was 77.4% and 111%. It also gave an Emax (human KOR [20]) of 100 ± 2%, an activation at 1 pM (human KOR [20]; [23]) of 34.6% and an activation at 3.162 pM (human KOR [20]; [23]) of 50.4%. It also gave an activation at 10 pM (human KOR [20]; [23]) of 75.7%, an activation at 31.62 pM (human KOR [20]; [23]) of 89.3% and an activation at 0.0001 µM (human KOR [20]; [23]) of 97.6%. For the same compound, the activation at 0.001 µM (human KOR [20]; [23]) was 96.5%, the activation at 0.1 µM (human KOR [20]; [23]) was 103% and the activation at 1 µM (human KOR [20]; [23]) was 100%. The activation at […] (human KOR [20]; [23]) was 94.1% and 99.5% and 96.9%, the activation at 1 pM (human KOR [20]; read-out: cAMP response) was 42.4% and the activation at 3.162 pM (human KOR [20]; read-out: cAMP response) was 56.3%. It also gave an activation at 10 pM (human KOR [20]; read-out: cAMP response) of 78.7%, an activation at 31.62 pM (human KOR [20]; read-out: cAMP response) of 90.8% and an activation at 0.0001 µM (human KOR [20]; read-out: cAMP response) of 98.1%. The activation at 0.001 µM (human KOR [20]; read-out: cAMP response) was 97.1%, the activation at 0.1 µM (human KOR [20]; read-out: cAMP response) was 103% and the activation at 1 µM (human KOR [20]; read-out: cAMP response) was 101%. The activation at […] (human KOR [20]; read-out: cAMP response) was 95% (2×) and 99.8% and 97.5%, the activation at 1 pM (human KOR [20]; [24]) was 34.6% and the activation at 3.162 pM (human KOR [20]; [24]) was 50.4%. The activation at 10 pM (human KOR [20]; [24]) was 75.7%, the activation at 31.62 pM (human KOR [20]; [24]) was 89.3% and the activation at 0.0001 µM (human KOR [20]; [24]) was 97.6%. It also gave an activation at 0.001 µM (human KOR [20]; [24]) of 96.5%, an activation at 0.1 µM (human KOR [20]; [24]) of 103% and an activation at 1 µM (human KOR [20]; [24]) of 100%. For the same compound, the activation at […] (human KOR [20]; [24]) was 94.1% and 99.5% and 96.9% and the “bias factor towards Gz protein” value (KOR) was 4.8.
